{"source": "patent US20070191493A1", "about": "“Use of n-alkanols as activators of the cftr channel” (priority 2003, published 2007)", "test_system": "CHO cells", "assay": "ATP-induced calcium response (cellular uncoupling) in CHO cells", "assay_type": "cell-based, Chinese hamster", "details": "α-GA 10 to 100 μM, octan-1-ol 1 mM", "method": "The Ca^2+ measurements are carried out in the presence of fura-2 (impermeant fluorescent probe) which binds […]. The cells are incubated in serum-free DMEM/F12 culture medium in the presence of the permeant form of fura-2 (fura-2/AM, 2.5 μM) for 1 h at 37° C. The cells, placed on the platform of an epifluorescent microscope (Olympus) (20× objective), are perfused with the solutions to be tested (e.g. ATP, octanol). They are sequentially illuminated at 340 nm and 380 nm and the fluorescence emitted (F) is measured at 510 nm. It is detected via a 12-bit CCD camera (Sony) connected to a data processing computer unit (TILL Photonics). The intracellular Ca^2+ concentration [Ca^2+]i is calculated using the Grynckiewicz equation (Grynckiewicz et al., 1985): [Ca^2+]i=Kdi *(R−Rmin/Rmax−R), based on the ratiometric analysis R (340/380 nm) of the fluorescence (TILL Vision); Rmax and Rmin denote the ratio of fluorescence measured in the presence or in the absence of Ca^2+."}
{"smiles": "CCCCCCCCO", "note": "[octan-1-ol]", "values": [{"measurement": "cellular uncoupling shown by ATP-induced calcium response", "result": "clearly uncouples the cells"}]}
